Experiments:
[1] = biological target: Cdc2/cyclin B; experiment: Cdc2/cyclin B protein kinase inhibition assay; format: biochemical
Procedure: GST-fused kinase domains of Kdr, Flt-1, Flk, Tek, c-Met, and c-Kit were expressed in baculovirus and purified over glutathione-Sepharose. Kinase inhibition was measured by detecting the decrease in phosphorylation of poly(Glu,[…]:1) essentially as previously described for EGF-R. […] Reactions were terminated by adding 10 μl of 250 mM EDTA, and the reaction mixture was transferred onto an Immobilon-PVDG membrane (Millipore, Bedford, Mass.). Following a washing (0.5% H3PO4), a soaking in EtOH, and drying, filters were counted in a liquid scintillation counter. […] Inhibition of Cdc2/cyclin B protein kinase (Arion et al. 1988; […] et al. 1991) and […] et al. 1992b) was assayed as previously described.

[2] = biological target: T1, Flt-1 (Homo sapiens, UniProt P17948); experiment: GST-fused kinase domain assay, Flt-1; format: biochemical; settings: Flt-1, text
T1 construct: GST-fused kinase domains of Kdr, Flt-1, Flk, Tek, c-Met, and c-Kit were expressed in baculovirus; GST; made in house
T1 sequence (P17948 827-1158 limits assumed): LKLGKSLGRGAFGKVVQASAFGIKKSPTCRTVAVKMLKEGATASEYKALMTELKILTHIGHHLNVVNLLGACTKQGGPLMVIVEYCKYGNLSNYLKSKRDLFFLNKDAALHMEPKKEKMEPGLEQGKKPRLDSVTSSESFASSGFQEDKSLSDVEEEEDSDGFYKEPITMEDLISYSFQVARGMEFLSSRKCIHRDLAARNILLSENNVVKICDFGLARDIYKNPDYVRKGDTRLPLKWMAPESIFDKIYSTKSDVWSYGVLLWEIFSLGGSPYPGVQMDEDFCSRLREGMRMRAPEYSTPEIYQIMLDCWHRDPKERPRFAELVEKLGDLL
Procedure: (§1) GST-fused kinase domains of Kdr, Flt-1, Flk, Tek, c-Met, and c-Kit were expressed in baculovirus and purified over glutathione-Sepharose. Kinase inhibition was measured by detecting the decrease in phosphorylation of poly(Glu,Tyr 4:1) essentially as previously described for EGF-R. Each kinase was incubated under optimized buffer conditions in 20 mM Tris-HCl, pH 7.5, 1–3 mM MnCl2, 3–10 mM MgCl2, 10 μM Na3VO4, 1 mM DTT, 0.2 μCi/[γ-^33P]ATP, 1–8 μM ATP, 3–8 μg/ml poly(Glu,Tyr 4:1), 1% DMSO in a total volume of 30 μl in the presence or absence of PKI166 for 10 min at ambient temperature. Reactions were terminated by adding 10 μl of 250 mM EDTA, and the reaction mixture was transferred onto an Immobilon-PVDG membrane (Millipore, Bedford, Mass.). Following a washing (0.5% H3PO4), a soaking in EtOH, and drying, filters were counted in a liquid scintillation counter. IC50 values for PKI166 were calculated by linear regression analysis of the percentage inhibition. Inhibition of Cdc2/cyclin B protein kinase (Arion et al. 1988; Partanen et al. 1991) and PKC (McGlynn et al. 1992b) was assayed as previously described.

[3] = biological target: T2, Flk (Mus musculus, UniProt P35918); experiment: GST-fused kinase domain assay, Flk; format: biochemical
T2 construct: GST-fused kinase domains of Kdr, Flt-1, Flk, Tek, c-Met, and c-Kit were expressed in baculovirus; GST; made in house
Procedure: as §1

[4] = biological target: T3, phosphorylated (activated) EGF-R (Mus musculus, UniProt Q01279); experiment: Activated EGF-R in UV-2237 fibrosarcoma tumors and skin/hair follicles of mice (immunohistochemistry); format: in vivo, C3H/HeN mice; settings: 6 administrations
T3 construct: from tissue; host or cells: UV-2237 fibrosarcoma tumours and dorsal skin/hair follicles of C3H/HeN mice
Procedure: C3H/HeN mice were injected subcutaneously with UV-2237 fibrosarcoma cells. Seven days after the implantation, the mice were given 3 weekley oral administrations of PBS, 10 mg/kg PKI166, 50 mg/kg PKI166, and 100 mg/kg PKI166. The mice were killed on day 15 of treatment (6 oral administrations), i.e., one day after the last oral administration.
The tumors were harvested and processed for immunohistochemistry. The contralateral dorsal skin and hair were excised and prepare for immunohistochemistry. The tumors and skin/hair samples were sectioned and stained with antibodies against the EGF-R and antibodies against the phosphorylated (activated) EGF-R. The results are shown in FIG. 8.

[5] = biological target: T4, Tek (Homo sapiens, UniProt Q02763); experiment: GST-fused kinase domain assay, Tek; format: biochemical
T4 construct: GST-fused kinase domains of Kdr, Flt-1, Flk, Tek, c-Met, and c-Kit were expressed in baculovirus; GST; made in house
Procedure: as §1

[6] = system: L3.6pl human pancreatic cancer cells
Source text: Animals and Orthotopic Implantation of Tumor Cells. Male athymic nude mice (NCr-nu) were purchased from the Animal Production Area of the National Cancer Institute-Frederick Cancer Research and Development Center (Frederick, Md.). The mice were housed and maintained in laminar flow cabinets under specific pathogen-free conditions in facilities approved by the American Association for Accreditation of Laboratory Animal Care and in accordance with current regulations and standards of the U. S. Department of Agriculture, U.S. Department of Health and Human Services, and the National Institutes of Health. The mice were used in accordance with institutional guidelines when they were 8 to 12 wk old.
Orthotopic Implantation of Tumor Cells. To produce tumors, L3.6pl cells were harvested from subconfluent cultures by a brief exposure to 0.25% trypsin and 0.02% EDTA. Trypsinization was stopped with medium containing 10% FBS, and the cells were washed once in serum-free medium and resuspended in HBSS. Only suspensions consisting of single cells with greater than 90% viability were used for the injections. Cells were injected into the pancreas as described previously. The mice were killed when moribund (5–6 wk). The size and weight of the primary pancreatic tumors, the incidence of regional (celiac and paraaortal) lymph node metastasis, and the number of liver metastases were recorded. Histopathology confirmed the nature of the disease.
Therapy of Established Human Pancreatic Carcinoma Tumors Growing in the Pancreas of Athymic Nude Mice. Seven days after implantation of tumor cells into the pancreas, 5 mice were killed and the presence of tumor lesions was determined. At this time, the median tumor volume was 18 mm^3. Histological examination confirmed the lesions to be actively growing pancreatic cancer.
Necropsy Procedures and Histological Studies. Mice were euthanized and the body weight was determined. Primary tumors in the pancreas were excised and weighed. […] Visible liver metastases were counted with the aid of a dissecting microscope and processed for H&E staining. All macroscopically enlarged regional (celiac and paraaortal) lymph nodes were harvested, and the presence of metastatic disease was confirmed by histology.

[7] = biological target: T5, EGF-R (Homo sapiens, UniProt P00533); experiment: Western blot analysis of EGF-R autophosphorylation in L3.6pl cells; format: cell-based; settings: 60 min pretreatment, 0.01–0.5 μM, then EGF
T5 construct: endogenous in cells; host or cells: L3.6pl human pancreatic cancer cells
Procedure: Western Blot Analysis of EGF-R Autophosphorylation following Treatment with PKI166. […] without 40 ng/ml rhEGF for 10 min, washed, and scraped into PBS containing 5 mM EDTA and 1 mM Na Orthovanadate, and centrifuged, and the pellet resuspended in lysis buffer (20 mM Tris-HCl, pH 8.0, 137 mM NaCl, 10% glycerol, 2 mM EDTA, 1 mM phenylmethylsulfonyl fluoride, 20 μM leupeptin, and 0.15 U/ml aprotinin) sonicated, and centrifuged to recover […] protein. Immunoprecipitation was performed using Mab anti-EGF-R (clone EGF-RI) as described previously (Perrotte et al. 1999; Parker et al. 1998). Immunoprecipitates were analyzed on 7.5% NaDodSO4-PAGE and transferred onto 0.45-μm nitrocellulose membranes. The filters were blocked with 3% bovine serum albumin in TDS (20 mM Tris-HCl, pH 7.5, 150 mM NaCl), probed with either polyclonal sheep anti-human EGF-R (1:1000) or monoclonal anti-phosphotyrosine (Mab 4G10) (1:2000) in TTBS (0.1% Tween 20 in TBS), and incubated with horseradish peroxidase-conjugated donkey anti-sheep IgG (1:2000) (Sigma Immunochemicals, St. Louis, Mo.) or sheep anti-mouse IgG (1:2000), respectively, in TTBS. Protein bands were visualized by ECL detection system. For an additional experiment, serum-starved L3.6pl cells were treated with gemcitabine (10 nM) with or without PKI166 (0.05, 0.5 μM) for 1 h, and then incubated with or without rhEGF (40 ng/ml) for 10 min. […]

T2 sequence (P35918 832-1160 limits assumed): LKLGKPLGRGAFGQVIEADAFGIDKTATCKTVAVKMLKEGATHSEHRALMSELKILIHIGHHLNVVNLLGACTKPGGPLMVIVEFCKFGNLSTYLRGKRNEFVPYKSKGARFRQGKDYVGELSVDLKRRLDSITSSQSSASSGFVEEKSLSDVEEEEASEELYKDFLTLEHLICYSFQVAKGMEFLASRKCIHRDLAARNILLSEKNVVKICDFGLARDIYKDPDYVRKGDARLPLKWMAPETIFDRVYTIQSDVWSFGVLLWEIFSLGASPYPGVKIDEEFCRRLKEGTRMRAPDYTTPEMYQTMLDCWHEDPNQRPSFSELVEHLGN
T4 sequence (Q02763 824-1096 limits assumed, species assumed): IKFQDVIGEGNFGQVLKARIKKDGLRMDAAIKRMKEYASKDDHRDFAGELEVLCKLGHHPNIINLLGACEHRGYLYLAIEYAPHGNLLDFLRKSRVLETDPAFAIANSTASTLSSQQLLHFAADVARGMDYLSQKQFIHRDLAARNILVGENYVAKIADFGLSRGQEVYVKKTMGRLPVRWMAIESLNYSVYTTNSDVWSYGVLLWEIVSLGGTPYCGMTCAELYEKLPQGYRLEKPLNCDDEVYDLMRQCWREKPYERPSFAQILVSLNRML
T5 sequence (P00533 25-1210): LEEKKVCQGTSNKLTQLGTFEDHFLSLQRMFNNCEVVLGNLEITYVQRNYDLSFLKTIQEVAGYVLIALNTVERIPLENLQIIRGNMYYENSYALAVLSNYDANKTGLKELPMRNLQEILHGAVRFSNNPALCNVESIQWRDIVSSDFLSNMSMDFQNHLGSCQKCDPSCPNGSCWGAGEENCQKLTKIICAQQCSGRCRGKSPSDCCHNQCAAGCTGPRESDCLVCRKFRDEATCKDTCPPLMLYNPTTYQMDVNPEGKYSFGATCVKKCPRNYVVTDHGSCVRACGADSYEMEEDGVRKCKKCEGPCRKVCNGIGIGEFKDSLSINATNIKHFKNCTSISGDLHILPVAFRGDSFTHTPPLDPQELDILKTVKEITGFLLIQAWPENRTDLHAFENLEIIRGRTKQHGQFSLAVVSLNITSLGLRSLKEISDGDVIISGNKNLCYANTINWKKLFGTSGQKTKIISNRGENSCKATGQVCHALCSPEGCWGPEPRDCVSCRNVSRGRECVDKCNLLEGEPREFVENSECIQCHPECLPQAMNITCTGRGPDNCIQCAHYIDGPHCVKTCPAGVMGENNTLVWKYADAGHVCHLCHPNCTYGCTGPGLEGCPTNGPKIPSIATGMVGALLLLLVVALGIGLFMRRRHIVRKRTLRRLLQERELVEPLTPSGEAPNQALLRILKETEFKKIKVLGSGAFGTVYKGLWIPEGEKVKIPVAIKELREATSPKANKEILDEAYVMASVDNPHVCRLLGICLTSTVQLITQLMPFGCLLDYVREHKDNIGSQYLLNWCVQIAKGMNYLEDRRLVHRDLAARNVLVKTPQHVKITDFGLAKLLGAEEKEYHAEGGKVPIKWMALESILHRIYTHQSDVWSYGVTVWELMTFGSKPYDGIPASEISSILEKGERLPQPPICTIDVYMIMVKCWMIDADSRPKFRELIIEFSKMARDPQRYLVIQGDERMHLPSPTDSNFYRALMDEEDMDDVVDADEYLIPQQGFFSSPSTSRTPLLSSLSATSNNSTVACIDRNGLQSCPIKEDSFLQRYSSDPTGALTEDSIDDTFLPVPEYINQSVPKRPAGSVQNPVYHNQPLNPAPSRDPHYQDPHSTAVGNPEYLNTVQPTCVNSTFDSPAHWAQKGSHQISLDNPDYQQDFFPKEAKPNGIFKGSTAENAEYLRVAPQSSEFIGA

C[C@@H](Nc1ncnc2[nH]c(-c3ccc(O)cc3)cc12)c1ccccc1 [PKI166, 4-(R)-phenethylamino-6-(hydroxyl) phenyl-7H-pyrrolo[2.3-d]-pyrimidine]
IC50 [1]: 78 µM
IC50 [2]: 0.962 µM
IC50 [3]: > 1 µM
Expression of activated EGF-R in tumors or skin/hair follicles ([4]; oral 10 mg/kg): did not decrease
Phosphorylation of EGF-R in tumors and skin/hair follicles ([4]; oral 50 mg/kg or 100 mg/kg): inhibited phosphorylation
IC50 [5]: > 1 µM
Histologically positive regional lymph node metastases, share of animals ([6]; day 35): 90%
Reduction of growth of primary pancreatic neoplasms ([6]; human pancreatic carcinoma in pancreas of nude mice): 45%
Tolerability as determined by maintenance of body weight ([6]; mouse, in vivo, po, 100 mg/kg): well tolerated
Inhibition of EGF-stimulated EGF-R autophosphorylation [7]: inhibited the autophosphorylation in a dose-dependent manner

From patent US7344829B2, “Methods for detecting the efficacy of anticancer treatments” (Board of Regents, the University of Texas System, priority 2000, dated 2008)
